Measurements: patent publication US10100006B2, “Compound having immune disease treatment effect and use thereof” (THE CATHOLIC UNIVERSITY OF KOREA INDUSTRY—ACADEMIC …, priority 2014, dated 2018)

Columns and labels:
TNF-α = assay: Inhibition of TNF-α production in anti-CD3 stimulated spleen cells of mouse, ELISA (Experimental Example 6); type: cell-based; conditions: spleen cells of DBA1/J normal mouse, anti mouse CD3 0.5 μg/ml, compound 200 and 500 μM; FIG. 24
Experimental: (§1) Furthermore, the inventors verified that inhibition degree of IL-17 and TNF-α as the inflammatory cytokines through an ELISA after treating anti mouse CD3 at a concentration of 0.5 μg/ml in the cells obtained from the spleen of a DBA1/J normal mouse group and commonly stimulating each compound at a concentration of 200 and 500 μM, in order to evaluating efficacy in an effect of inhibiting the inflammatory cytokines by targeting the compounds synthesized in Examples of the present invention.

IL-17 [1] = assay: Inhibition of IL-17 production in anti-CD3 stimulated spleen cells of mouse, ELISA (Experimental Example 6); type: cell-based; conditions: spleen cells of DBA1/J normal mouse, anti mouse CD3 0.5 μg/ml, compound 200 and 500 μM; FIG. 24
Experimental: as §1

IL-17 [2] = assay: Production of inflammatory cytokines, ELISA: IL-17, lymphocytes of human peripheral blood; type: cell-based; conditions: D: Lymphocytes of human peripheral blood
Experimental: (§2) Further, in a lupus-developed mouse model, a sanroque mouse used in a lupus model in the art was used and the human P.B group was used by obtaining lymphocytes from the human peripheral blood. The isolation of spleen cells and the isolation of lymphocytes from each mouse and the human peripheral blood were performed by a general method which was widely known in the art and the obtained cells were incubated for 72 h under the anti-CD3 0.5 μg/ml stimulation condition, activated, and then used.
(§3) In order to verify whether the novel compounds of the present invention have an effect on inflammation and the production of inflammatory cytokines as cause substances of the immune diseases, the inventors analyzed the production degree of IL-17, IL-6, TNF-α, IFN-γ, MMP-9, and STAT-3 and the expression degree of mRNA of these cytokines by targeting each test group. The production degree of the inflammatory cytokines was analyzed through an ELISA after obtaining a supernatant by targeting cells which were treated with the compound of the present invention and incubated, and particularly, the cells reacted with cytokine-specific antibodies anti-IL-17, anti-IL-6, anti-TNF-α, anti-IFN-γ, anti-MMP-9, and anti-STAT-3 all night at […] and then non-specific binding was blocked with a blocking solution (1% BSA/PBST). Thereafter, each biotinylated antibody was reacted at room temperature for 2 hrs, washed four times, and then reacted at room temperature for 2 hrs after diluting and adding an extravidin-alkaline phosphatase conjugate. Thereafter, a PNPP/DEA solution was added and colored, and then the absorbance was measured at a wavelength of 405 nm.

IFN-r [3] = assay: Production of inflammatory cytokines, ELISA: IFN-r, lymphocytes of human peripheral blood; type: cell-based; conditions: D: Lymphocytes of human peripheral blood
Experimental: as §2, §3

TNF-a [4] = assay: Production of inflammatory cytokines, ELISA: TNF-a, mouse spleen cells; type: cell-based
IFN-r [5] = assay: Production of inflammatory cytokines, ELISA: IFN-r, mouse spleen cells; type: cell-based
IL-6 = assay: Production of inflammatory cytokines, ELISA: IL-6, mouse spleen cells; type: cell-based
Th17 cells = assay: Inhibition of Th17 cells, flow cytometry; type: cell-based, mouse
[6] = system: cells in each test group disclosed in Table 3; assay: Cytotoxicity analysis (MTT assay); type: cell-based, mouse; human; conditions: treatment for each concentration, 72 hrs; normal cells and disease-group cells; compared with control or metformin-treated group
Experimental: In order to verify whether the compounds synthesized in the present invention causes the cytotoxicity in the cells, an MTT assay was performed, target cells were divided to be the number of 2×10^5 cells per well on a 96 well plate, treated with the compounds of the present invention for each concentration, incubated for 72 hrs, added with an MTT solution (0.5% 3-4,5-dimethyl thiazol-2-yl)-2,5-diphenyl-2H-tetrazolium bromide), and incubated for 4 hrs again. Thereafter, absorbance at 540 nm was measured by an enzymelinked immunospecific assay (ELISA) meter to observe the cytotoxicity.
In order to verify whether the novel compounds synthesized in Example 1 have the cytotoxicity, a cell survival rate was verified through the MTT assay by targeting cells in each test group disclosed in Table 3 above. That is, the cells of each test group were divided according to the number of 2×10^5 cells per well and treated with the novel synthesized compounds of the present invention for each concentration, and the cell survival rate was analyzed.

IL-17 [7] = assay: Production of inflammatory cytokines, ELISA: IL-17, mouse spleen cells; type: cell-based
Total IgG = assay: Autoantibody production, sandwich ELISA: Total IgG; type: cell-based, mouse
osteoclasts = assay: Inhibition of differentiation of osteoclasts, TRAP staining; type: cell-based, mouse; conditions: M-CSF and RANKL
IgG1 = assay: Autoantibody production, sandwich ELISA: IgG1; type: cell-based, mouse
Treg cells = assay: Treg cell-induced activity, flow cytometry; type: cell-based, mouse; conditions: TCR condition
IgG2 = assay: Autoantibody production, sandwich ELISA: IgG2; type: cell-based, mouse
TNF-a [8] = assay: Inflammatory gene expression, RT-PCR: TNF-a; type: cell-based, mouse; conditions: control = 1
MMP-9 = assay: Inflammatory gene expression, RT-PCR: MMP-9; type: cell-based, mouse; conditions: control = 1
STAT3 = assay: Inflammatory gene expression, RT-PCR: STAT3; type: cell-based; conditions: A: Normal mouse cells; control = 1
[9] = Th17 condition (Th17 differentiation condition), A: Normal mouse cells
[10] = TCR condition, A: Normal mouse cells
[11] = TCR condition, B: Rheumatoid arthritis cells

SMILES: CCN(C(=N)NC(=N)N)c1ccccc1 [SD-573, N-Ethyl-N-phenyl biguanide]
- inhibition of TNF-α production (TNF-α): simultaneously inhibiting the IL-17 and the TNF-α
- inhibition of IL-17 production (IL-17 [1]): simultaneously inhibiting the IL-17 and the TNF-α

SMILES: CCN(C(=N)NC(=N)N)c1ccc(Cl)cc1 [SD-566, N-(4-Chlorophenyl)-N-ethyl-biguanide]
- inhibition of TNF-α production (TNF-α): simultaneously inhibiting the IL-17 and the TNF-α
- inhibition of IL-17 production (IL-17 [1]): simultaneously inhibiting the IL-17 and the TNF-α

SMILES: CCN(C(=N)NC(=N)N)c1ccc(Br)cc1 [SD-567, N-(4-Bromophenyl)-N-ethyl-biguanide]
- inhibition of TNF-α production (TNF-α): simultaneously inhibiting the IL-17 and the TNF-α
- inhibition of IL-17 production (IL-17 [1]): simultaneously inhibiting the IL-17 and the TNF-α

SMILES: CN(C(=N)NC(=N)N)c1ccc(F)cc1F [SD-284, N-(2,4-Difluorophenyl)-N-methylbiguanide]
- IL-17 production (IL-17 [2]): 0.1 ng/mL
- IFN-r production (IFN-r [3]): 0.08 ng/mL
- TNF-a production (TNF-a [4]; Table 6, normal mouse cells): 0.5 ng/mL
- IFN-r production (IFN-r [5]; Table 6, normal mouse cells): 4.9 ng/mL
- IL-6 production (IL-6; Table 6, normal mouse cells): 0.7 ng/mL
- Th17 (Th17 cells; [9]): 2
- cytotoxicity (cell survival rate, MTT) [6]: cytotoxicity was not observed
- IL-17 production (IL-17 [7]; Table 6, normal mouse cells): 6.5 ng/mL

SMILES: CCN(C(=N)NC(=N)N)c1ccc(F)cc1 [SD-282, N-Ethyl-N-(4-fluorophenyl) biguanide]
- Total IgG (Total IgG; A: Normal mouse cells): 0.7 ng/mL
- Total IgG (Total IgG; B: Rheumatoid arthritis cells): 60.3 ng/mL
- Total IgG (Total IgG; C: Lupus cells): 127.7 ng/mL
- IL-17 production (IL-17 [2]): 0.1 ng/mL
- TRAP + Cell (osteoclasts; A: Normal mouse cells): 157
- TRAP + Cell (osteoclasts; B: Rheumatoid arthritis cells): 89
- IgG1 (IgG1; A: Normal mouse cells): 1 ng/mL
- IgG1 (IgG1; B: Rheumatoid arthritis cells): 218.7 ng/mL
- IgG1 (IgG1; C: Lupus cells): 425.4 ng/mL
- IFN-r production (IFN-r [3]): 0.1 ng/mL
- TNF-a production (TNF-a [4]; A: Normal mouse cells): 0.4 ng/mL
- TNF-a production (TNF-a [4]; B: Rheumatoid arthritis cells): 0.4 ng/mL
- TNF-a production (TNF-a [4]; C: Lupus cells): 0.7 ng/mL
- Treg (Treg cells; A: Normal mouse cells): 2.5
- Treg (Treg cells; B: Rheumatoid arthritis cells): 4.6
- Treg (Treg cells; C: Lupus cells): 2.9
- IFN-r production (IFN-r [5]; A: Normal mouse cells): 3.3 ng/mL
- IFN-r production (IFN-r [5]; B: Rheumatoid arthritis cells): 2.9 ng/mL
- IFN-r production (IFN-r [5]; C: Lupus cells): 7.6 ng/mL
- IL-6 production (IL-6; A: Normal mouse cells): 1.3 ng/mL
- IL-6 production (IL-6; B: Rheumatoid arthritis cells): 1.3 ng/mL
- IL-6 production (IL-6; C: Lupus cells): 1 ng/mL
- IgG2 (IgG2; A: Normal mouse cells): 37.1 ng/mL
- IgG2 (IgG2; B: Rheumatoid arthritis cells): 38.3 ng/mL
- IgG2 (IgG2; C: Lupus cells): 110.9 ng/mL
- TNF-a gene expression (TNF-a [8]; A: Normal mouse cells): 0.07 gene expression
- TNF-a gene expression (TNF-a [8]; B: Rheumatoid arthritis cells): 0.06 gene expression
- TNF-a gene expression (TNF-a [8]; C: Lupus cells): 0.8 gene expression
- MMP-9 gene expression (MMP-9; A: Normal mouse cells): 0.1 gene expression
- MMP-9 gene expression (MMP-9; B: Rheumatoid arthritis cells): 0.08 gene expression
- MMP-9 gene expression (MMP-9; C: Lupus cells): 1.3 gene expression
- Th17 (Th17 cells; [10]): 1.2
- Th17 (Th17 cells; [11]): 1.5
- Th17 (Th17 cells; TCR condition, C: Lupus cells): 0.9
- Th17 (Th17 cells; [9]): 0.5
- cytotoxicity (cell survival rate, MTT) [6]: cytotoxicity was not observed
- STAT3 gene expression (STAT3): 0.6 gene expression
- IL-17 production (IL-17 [7]; A: Normal mouse cells): 1.7 ng/mL
- IL-17 production (IL-17 [7]; B: Rheumatoid arthritis cells): 2.1 ng/mL
- IL-17 production (IL-17 [7]; C: Lupus cells): 0.6 ng/mL

SMILES: N=C(N)NC(=N)Nc1ccc(Br)cc1 [SD-563, N-(4-Bromophenyl) biguanide]
- inhibition of TNF-α production (TNF-α): simultaneously inhibiting the IL-17 and the TNF-α
- inhibition of IL-17 production (IL-17 [1]): simultaneously inhibiting the IL-17 and the TNF-α

SMILES: CCN(C(=N)NC(=N)N)c1ccccc1F [SD-574, N-Ethyl-N-(2-fluorophenyl) biguanide]
- inhibition of TNF-α production (TNF-α): simultaneously inhibiting the IL-17 and the TNF-α
- inhibition of IL-17 production (IL-17 [1]): simultaneously inhibiting the IL-17 and the TNF-α

SMILES: CCN(C(=N)NC(=N)N)c1ccc(F)cc1F [SD-283, N-(2,4-Difluorophenyl)-N-ethylbiguanide]
- Total IgG (Total IgG; A: Normal mouse cells): 2.9 ng/mL
- Total IgG (Total IgG; B: Rheumatoid arthritis cells): 49.6 ng/mL
- Total IgG (Total IgG; C: Lupus cells): 113.5 ng/mL
- IL-17 production (IL-17 [2]): 0.1 ng/mL
- TRAP + Cell (osteoclasts; A: Normal mouse cells): 123
- TRAP + Cell (osteoclasts; B: Rheumatoid arthritis cells): 85
- IgG1 (IgG1; A: Normal mouse cells): 41 ng/mL
- IgG1 (IgG1; B: Rheumatoid arthritis cells): 135.3 ng/mL
- IgG1 (IgG1; C: Lupus cells): 296.5 ng/mL
- IFN-r production (IFN-r [3]): 0.1 ng/mL
- TNF-a production (TNF-a [4]; A: Normal mouse cells): 0.5 ng/mL
- TNF-a production (TNF-a [4]; B: Rheumatoid arthritis cells): 0.3 ng/mL
- TNF-a production (TNF-a [4]; C: Lupus cells): 0.6 ng/mL
- Treg (Treg cells; A: Normal mouse cells): 3
- Treg (Treg cells; B: Rheumatoid arthritis cells): 5.1
- Treg (Treg cells; C: Lupus cells): 3.3
- IFN-r production (IFN-r [5]; A: Normal mouse cells): 7.2 ng/mL
- IFN-r production (IFN-r [5]; B: Rheumatoid arthritis cells): 5.4 ng/mL
- IFN-r production (IFN-r [5]; C: Lupus cells): 5.5 ng/mL
- IL-6 production (IL-6; A: Normal mouse cells): 1.4 ng/mL
- IL-6 production (IL-6; B: Rheumatoid arthritis cells): 1.1 ng/mL
- IL-6 production (IL-6; C: Lupus cells): 0.9 ng/mL
- IgG2 (IgG2; A: Normal mouse cells): 97.6 ng/mL
- IgG2 (IgG2; B: Rheumatoid arthritis cells): 99.4 ng/mL
- IgG2 (IgG2; C: Lupus cells): 76 ng/mL
- TNF-a gene expression (TNF-a [8]; A: Normal mouse cells): 0.4 gene expression
- TNF-a gene expression (TNF-a [8]; B: Rheumatoid arthritis cells): 0.06 gene expression
- TNF-a gene expression (TNF-a [8]; C: Lupus cells): 0.1 gene expression
- MMP-9 gene expression (MMP-9; A: Normal mouse cells): 0.3 gene expression
- MMP-9 gene expression (MMP-9; B: Rheumatoid arthritis cells): 1 gene expression
- MMP-9 gene expression (MMP-9; C: Lupus cells): 0.04 gene expression
- Th17 (Th17 cells; [10]): 1.1
- Th17 (Th17 cells; [11]): 2.3
- Th17 (Th17 cells; TCR condition, C: Lupus cells): 0.5
- Th17 (Th17 cells; [9]): 0.9
- cytotoxicity (cell survival rate, MTT) [6]: cytotoxicity was not observed
- STAT3 gene expression (STAT3): 1.3 gene expression
- IL-17 production (IL-17 [7]; A: Normal mouse cells): 1.6 ng/mL
- IL-17 production (IL-17 [7]; B: Rheumatoid arthritis cells): 2.2 ng/mL
- IL-17 production (IL-17 [7]; C: Lupus cells): 0.4 ng/mL

SMILES: CCCN(C(=N)NC(=N)N)c1ccc(F)cc1F [SD-580, N-(2,4-Difluorophenyl)-N-propylbiguanide]
- inhibition of TNF-α production (TNF-α): simultaneously inhibiting the IL-17 and the TNF-α
- inhibition of IL-17 production (IL-17 [1]): simultaneously inhibiting the IL-17 and the TNF-α

SMILES: N=C(N)NC(=N)Nc1cccc(Cl)c1 [SD-564, N-(3-Chlorophenyl) biguanide]
- inhibition of TNF-α production (TNF-α): simultaneously inhibiting the IL-17 and the TNF-α
- inhibition of IL-17 production (IL-17 [1]): simultaneously inhibiting the IL-17 and the TNF-α
